Laboratory results: US10722520B2, “Heterocyclic compounds and their use in preventing or treating bacterial infections” (MUTABILIS, priority 2016, dated 2020)
Counter-ions that a name gives are not always drawn. Like-named read-outs stand apart in the source and are kept apart here.

Experiments:
E. cloacae P99 = assay: MIC of compound alone, broth microdilution; type: cell-based; details: Enterobacter cloacae; strain P99; compound alone; read-out: MIC compounds of the invention alone
Procedure: (§1) Log phase bacterial suspensions were adjusted to a final density of 5×10^5 cfu/mL in cation-adjusted Mueller-Hinton broth (Becton-Dickinson) and added to each well (98 μL). Microplates were incubated for 16-20 h at 35° C. in ambient air. The MIC of the compounds was defined as the lowest concentration of said compounds that prevented bacterial growth as read by visual inspection.

E. coli 190317 = assay: MIC of compound alone, broth microdilution; type: cell-based; details: Escherichia coli; strain 190317; compound alone; read-out: MIC compounds of the invention alone
Procedure: as §1

K. pneumoniae 6299 = assay: MIC of compound alone, broth microdilution; type: cell-based; details: Klebsiella pneumoniae; strain 6299; compound alone; read-out: MIC compounds of the invention alone
Procedure: as §1

K. pneumoniae BAA-1898 = assay: MIC of compound alone, broth microdilution; type: cell-based; details: Klebsiella pneumoniae, BAA1898; strain BAA-1898; compound alone; read-out: MIC compounds of the invention alone
Procedure: as §1

P. aeruginosa CIP107051 = assay: MIC of compound alone, broth microdilution; type: cell-based; details: Pseudomonas aeruginosa; strain CIP107051; compound alone; read-out: MIC compounds of the invention alone
Procedure: as §1

CMY-37 = CMY-37 (Citrobacter freundii, UniProt P05193); details: read-out: IC50 β-lactamase CMY-37
AmpC (P99) = AmpC (P99) (Enterobacter cloacae, UniProt P05364); assay: biochemical
AmpC (PAE) = AmpC (PAE) (Pseudomonas aeruginosa, UniProt P24735); assay: biochemical
OXA-15 = OXA-15 (Pseudomonas aeruginosa, UniProt Q51574); assay: biochemical
TEM-1 = TEM-1 (Escherichia coli, UniProt P62593)
SHV-1 = SHV-1 (Klebsiella pneumoniae, UniProt P0AD64)
CTX-M-15 = CTX-M-15 (Escherichia coli, UniProt Q9EXV5)
KPC-2 = KPC-2 (Klebsiella pneumoniae, UniProt Q9F663)
OXA-1 = OXA-1 (Escherichia coli, UniProt P13661)
OXA-11 = OXA-11 (Pseudomonas aeruginosa, UniProt Q06778)
OXA-48 = OXA-48 (Klebsiella pneumoniae, UniProt Q6XEC0)
[1] = class (C), nitrocefin 200 μM, 30-min pre-incubation, enzyme 0.2 nM

| Structure (SMILES) | MIC (E. cloacae P99) | MIC (E. coli 190317) | MIC (K. pneumoniae 6299) | MIC (K. pneumoniae BAA-1898) | MIC (P. aeruginosa CIP107051) | IC50 (CMY-37; [1]) | IC50 (AmpC (P99)) | IC50 (AmpC (PAE)) | IC50 (OXA-15) | IC50 (TEM-1) | IC50 (SHV-1) | IC50 (CTX-M-15) | IC50 (KPC-2) | IC50 (OXA-1) | IC50 (OXA-11) | IC50 (OXA-48) | IC50 (CMY-37) |
| --- | --- | --- | --- | --- | --- | --- | --- | --- | --- | --- | --- | --- | --- | --- | --- | --- | --- |
| CC(=NOCCN)c1ccn(C2=CC3CN(C2)C(=O)N3OS(=O)(=O)O)n1 (mixture of isomers) [Example 29, (7-oxo-3-(3-[(Z,E)-N-(2-aminoethoxy)-C-methyl-carbonimidoyl]-pyrazol-1-yl)-1,6-diazabicyclo[3.2.1]oct-3-en-6-yl) hydrogen sulfate] | 32 µg/mL | 8 µg/mL | > 32 µg/mL | 32 µg/mL | > 32 µg/mL | 35 nM | 25 nM | 190 nM | 51 nM | 0.21 nM | 1.1 nM | 0.55 nM | 8.7 nM | 150 nM | 31 nM | 3 nM |  |
| NC(=O)c1cnn(C2=CC3CN(C2)C(=O)N3OS(=O)(=O)[O-])c1.[Na+] (centres unmarked) [Example 7, sodium [3-(4-carbamoylpyrazol-1-yl)-7-oxo-1,6-diazabicyclo[3.2.1]oct-3-en-6-yl]sulfate] | > 32 µg/mL | 16 µg/mL | > 32 µg/mL | > 32 µg/mL | > 32 µg/mL |  | 21 nM | 400 nM | 55 nM | 0.72 nM | 4.7 nM | 2.7 nM | 12 nM | 250 nM | 93 nM | 7.8 nM | 22 nM |
| N#Cc1cnn(C2=CC3CN(C2)C(=O)N3OS(=O)(=O)[O-])c1.[Na+] (centres unmarked) [Example 8, sodium [3-(4-cyanopyrazol-1-yl)-7-oxo-1,6-diazabicyclo[3.2.1]oct-3-en-6-yl]sulfate] | > 32 µg/mL | 8 µg/mL | > 32 µg/mL | > 32 µg/mL | > 32 µg/mL |  | 7.6 nM | 140 nM | 5.3 nM | 0.35 nM | 2.5 nM | 0.78 nM | 3.3 nM | 100 nM | 20 nM | 3.5 nM | 16 nM |
| COc1cnn(C2=CC3CN(C2)C(=O)N3OS(=O)(=O)[O-])c1.[Na+] (centres unmarked) [Example 9, sodium [7-oxo-3-(4-methoxypyrazol-1-yl)-1,6-diazabicyclo[3.2.1]oct-3-en-6-yl]sulfate] | > 32 µg/mL | > 32 µg/mL | > 32 µg/mL | > 32 µg/mL | > 32 µg/mL |  | 15 nM | 29 nM | 55 nM | 0.41 nM | 1.9 nM | 0.5 nM | 22 nM | 410 nM | 310 nM | 7 nM | 9.3 nM |
| NCCc1ccn(C2=CC3CN(C2)C(=O)N3OS(=O)(=O)O)n1 (centres unmarked) [Example 10, [3-[3-(2-aminoethyl)pyrazol-1-yl]-7-oxo-1,6-diazabicyclo[3.2.1]oct-3-en-6-yl]hydrogen sulfate] | 8 µg/mL | 1 µg/mL | > 32 µg/mL | 16 µg/mL | 32 µg/mL | 18 nM | 22 nM | 160 nM | 180 nM | 0.3 nM | 3.2 nM | 1.1 nM | 50 nM | 270 nM | 67 nM | 14 nM |  |
| O=C(NCCO)c1ccn(C2=CC3CN(C2)C(=O)N3OS(=O)(=O)[O-])n1.[Na+] (centres unmarked) [Example 11, sodium [3-[3-(2-hydroxyethylcarbamoyl)pyrazol-1-yl]-7-oxo-1,6-diazabicyclo[3.2.1]oct-3-en-6-yl]sulfate] | 32 µg/mL | 16 µg/mL | > 32 µg/mL | > 32 µg/mL | > 32 µg/mL |  | 27 nM | 430 nM | 78 nM | 1.2 nM | 7.6 nM | 1.4 nM | 12 nM | 95 nM | 21 nM | 7.7 nM | 53 nM |
| O=C1N2CC(n3ccc(CO)n3)=CC(C2)N1OS(=O)(=O)O (centres unmarked) [Example 12, triethylammonium [3-[3-(hydroxymethyl)pyrazol-1-yl]-7-oxo-1,6-diazabicyclo[3.2.1]oct-3-en-6-yl]sulfate] | 4 µg/mL | 1 µg/mL | 16 µg/mL | 8 µg/mL | > 32 µg/mL |  | 15 nM | 52 nM | 190 nM | 0.41 nM | 2.1 nM | 0.53 nM | 26 nM | 200 nM | 70 nM | 12 nM |  |
| Nc1ncc(C(=O)Nc2ccn(C3=CC4CN(C3)C(=O)N4OS(=O)(=O)[O-])n2)s1.[Na+] (centres unmarked) [Example 13, sodium [3-[3-[(2-aminothiazole-5-carbonyl)amino]pyrazol-1-yl]-7-oxo-1,6-diazabicyclo[3.2.1]oct-3-en-6-yl]sulfate] | > 32 µg/mL | 32 µg/mL | > 32 µg/mL | > 32 µg/mL | > 32 µg/mL |  | 2.6 nM | 8.7 nM | 11 nM | 0.65 nM | 3.2 nM | 0.62 nM | 2.5 nM | 27 nM | 4 nM | 1.9 nM | 1.1 nM |
| O=C(c1ccn(C2=CC3CN(C2)C(=O)N3OS(=O)(=O)[O-])n1)N1CCOCC1.[Na+] (centres unmarked) [Example 31, sodium (7-oxo-3-[3-(morpholine-4-carbonyl)pyrazol-1-yl]-1,6-diazabicyclo[3.2.1]oct-3-en-6-yl) sulfate] | > 32 µg/mL | > 32 µg/mL | > 32 µg/mL | > 32 µg/mL | > 32 µg/mL |  | 15 nM | 210 nM | 88 nM | 1.3 nM | 4.4 nM | 0.62 nM | 11 nM | 64 nM | 33 nM | 3 nM |  |
| O=C1N2CC(n3cc(CO)nn3)=CC(C2)N1OS(=O)(=O)O (centres unmarked) [Example 64, sodium [3-[4-(hydroxymethyl)triazol-1-yl]-7-oxo-1,6-diazabicyclo[3.2.1]oct-3-en-6-yl]sulfate] | 4 µg/mL | 2 µg/mL | 32 µg/mL | 8 µg/mL | > 32 µg/mL |  |  |  | 8.7 nM | 0.52 nM | 2.9 nM | 1 nM | 7 nM | 86 nM | 96 nM | 0.7 nM |  |
| O=C1N2CC(n3ccc([C@H](O)CO)n3)=CC(C2)N1OS(=O)(=O)[O-].[Na+] (stereo partly drawn) [Example 76, sodium [3-[3-[(1S)-1,2-dihydroxyethyl]pyrazol-1-yl]-7-oxo-1,6-diazabicyclo[3.2.1]oct-3-en-6-yl]sulfate] | 32 µg/mL | 8 µg/mL | > 32 µg/mL | > 32 µg/mL | > 32 µg/mL |  | 29 nM | 210 nM | 610 nM | 1.8 nM | 7.3 nM | 2.1 nM | 73 nM | 860 nM | 260 nM | 50 nM |  |
| O=C(Nc1cc[nH]n1)c1ccn(C2=CC3CN(C2)C(=O)N3OS(=O)(=O)[O-])n1.[Na+] (centres unmarked) [Example 85, sodium [7-oxo-3-[3-(pyrazol-3-ylcarbamoyl)pyrazol-1-yl]-1,6-diazabicyclo[3.2.1]oct-3-en-6-yl]sulfate] | > 32 µg/mL | 32 µg/mL | > 32 µg/mL | > 32 µg/mL | > 32 µg/mL |  | 11 nM | 130 nM | 16 nM | 0.35 nM | 1.6 nM | 0.59 nM | 3.4 nM | 22 nM | 7.5 nM | 1.7 nM |  |
